Reference: ChEMBL document CHEMBL1201862, “PubChem BioAssay data set” (2004)
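Grown in 96-well plates, cells were treated for 48 hours with each compound at five concentrations. Insufficient inhibition: endpoint recorded as highest concentration tested. GI50 marks 50% less growth.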 Active and inactive are the calls of the source. Rule as the data show it: active = GI50 up to about 1.1 µM and inactive = higher.

Tests used:
Assay in all cases: NCI anticancer screen, dose series, 48 h
[1] = system: TK-10
[2] = system: SK-OV-3
[3] = system: A549
[4] = system: Malme-3M
[5] = system: KM12
[6] = system: A498
[7] = system: UACC-257
[8] = system: HOP-62
[9] = system: K562
[10] = system: U-251
[11] = system: DLD-1
[12] = system: NCI-H226
[13] = system: SK-MEL-5
[14] = system: ACHN
[15] = system: OVCAR-5
[16] = system: CAKI-1
[17] = system: NCI-H460
[18] = system: SK-MEL-2
[19] = system: RXF 393

Measured: GI50

Cc1cccc(C)c1NC(=O)CCc1n[nH]c(=S)o1
inactive: [1] > 100 µM | [2] > 100 µM | [3] 88.5 µM | [4] > 100 µM | [5] > 100 µM | [6] > 100 µM | [7] > 100 µM | [8] > 100 µM | [9] 36.2 µM | [10] > 100 µM | [11] 67.9 µM | [12] > 100 µM | [13] > 100 µM | [14] > 100 µM | [15] > 100 µM | [16] > 100 µM | [17] > 100 µM

COc1cc(C2(C)SCCCS2)c(I)c(OC)c1OC
inactive: [1] > 100 µM | [2] > 100 µM | [3] > 100 µM | [4] > 100 µM | [5] > 100 µM | [6] > 100 µM | [7] > 100 µM | [8] > 100 µM | [9] 87.5 µM | [10] > 100 µM | [11] > 100 µM | [12] > 100 µM | [13] > 100 µM | [14] > 100 µM | [15] > 100 µM | [18] > 100 µM | [16] > 100 µM | [17] > 100 µM

Cc1cc(NS(=O)(=O)c2ccc(NC(=O)c3ccc(Cl)c4c(Nc5ccc(S(=O)(=O)N=C(N)N)cc5)c5ccccc5nc34)cc2)no1
inactive: [1] > 100 µM | [2] > 100 µM | [4] > 100 µM | [19] 19.2 µM | [5] 40.6 µM | [6] > 100 µM | [7] > 100 µM | [8] 21.6 µM | [9] 39 µM | [10] 18 µM | [11] > 100 µM | [14] > 100 µM | [15] > 100 µM | [17] > 100 µM

CC(=O)OC1CC2C(C)(C)C(=O)C=C[C@]2(C)C2CCC3(C)C(c4ccoc4)C(=O)C4OC43[C@]12C (some centres not stated)
inactive: [1] 36.6 µM | [2] 13.2 µM | [3] 16.7 µM | [4] 15.2 µM | [5] 15.1 µM | [6] 17.6 µM | [7] 15.7 µM | [8] 27.8 µM | [9] 13.1 µM | [10] 18.8 µM | [11] 16.5 µM | [12] 16.2 µM | [13] 15.7 µM | [14] 24.2 µM | [15] 29.4 µM | [18] 16 µM | [16] 28.5 µM | [17] 17.1 µM
